# From ChEMBL document CHEMBL5046290, “Design, Synthesis, and Preclinical Profiling of GSK3739936 (BMS-986180), an Allosteric Inhibitor of HIV-1 Integrase with Broad-Spectrum Activity toward 124/125 Polymorphs” (J Med Chem, 2022)
# Key:
# [1] = Cytotoxicity against human MT2 cells assessed as cell viability measured after 4 days by XTT assay; format: toxicity, cell-based; details: time 4 day
# [2] = test system: Human immunodeficiency virus 1; assay: Antiviral activity against recombinant HIV1 NLRep-Rluc harbouring polymorphic T124/T125 integrase infected in human MT-2 cells assessed as inhibition of virus growth in presence of fetal bovine serum by measuring luciferase activity after 5 days; format: functional, organism-based, MT2
# [3] = Displacement of [3H](S)-2-(tert-butoxy)-2-(2-methyl-4-(p-tolyl)quinolin-3-yl)acetic acid from LEDGF-binding site of recombinant T124/T125 polymorphic HIV1 integrase by LIDIA assay; parameters: species or system Human immunodeficiency virus 1
# [4] = Metabolic stability in rat liver microsome assessed half life at 0.5 uM by LC-MS/MS analysis; format: ADME; details: liver microsomes
# [5] = test system: Human immunodeficiency virus 1; assay: Antiviral activity against recombinant HIV1 NLRep-Rluc harbouring polymorphic AT infected in human MT-2 cells assessed as inhibition of virus growth in presence of fetal bovine serum by measuring luciferase activity after 5 days; format: functional, organism-based; details: Human immunodeficiency virus 1, NLRep, MT2, 120 h
# [6] = test system: Human immunodeficiency virus 1; assay: Antiviral activity against recombinant HIV1 NLRep-Rluc harbouring polymorphic AA infected in human MT-2 cells assessed as inhibition of virus growth in presence of fetal bovine serum by measuring luciferase activity after 5 days; format: functional, organism-based; details: Human immunodeficiency virus 1, NLRep, MT2, 120 h
# [7] = Metabolic stability in human liver microsome assessed half life at 0.5 uM by LC-MS/MS analysis; format: ADME; details: liver microsomes
# [8] = Clearance in Sprague-Dawley rat at 1 mg/kg, iv by LC-MS/MS analysis; format: ADME, organism-based; details: in vivo
# [9] = test system: Human immunodeficiency virus 1; assay: Antiviral activity against recombinant HIV1 NLRep-Rluc harbouring polymorphic TA infected in human MT-2 cells assessed as inhibition of virus growth in presence of fetal bovine serum by measuring luciferase activity after 5 days; format: functional, organism-based; details: Human immunodeficiency virus 1, NLRep, MT2, 120 h
# [10] = test system: Human immunodeficiency virus 1; assay: Antiviral activity against recombinant HIV1 NLRep-Rluc harbouring polymorphic NT infected in human MT-2 cells assessed as inhibition of virus growth in presence of fetal bovine serum by measuring luciferase activity after 5 days; format: functional, organism-based; details: Human immunodeficiency virus 1, NLRep, MT2, 120 h
# [11] = test system: Human immunodeficiency virus 1; assay: Antiviral activity against recombinant HIV1 NLRep-Rluc harbouring polymorphic NA infected in human MT-2 cells assessed as inhibition of virus growth in presence of fetal bovine serum by measuring luciferase activity after 5 days; format: functional, organism-based; details: Human immunodeficiency virus 1, NLRep, MT2, 120 h
# [12] = test system: Human immunodeficiency virus 1; assay: Antiviral activity against recombinant HIV1 A128T-resitant mutant […] infected in human MT-2 cells assessed as inhibition of virus growth in presence of fetal bovine serum by measuring luciferase activity after 5 days; format: functional, organism-based; details: Human immunodeficiency virus 1, MT2, 120 h
# [13] = test system: Human immunodeficiency virus 1; assay: Anti retroviral activity against HIV-1 NL4-3 harboring at AT polymorph infected in human MT4 cells by CellTitre-Glo luminescent reagent based assay; format: functional, organism-based; details: Human immunodeficiency virus 1, NL4-3, MT4
# [14] = test system: Human immunodeficiency virus 1; assay: Anti retroviral activity against HIV-1 NL4-3 harboring at TT polymorph infected in human MT4 cells by CellTitre-Glo luminescent reagent based assay; format: functional, organism-based; details: Human immunodeficiency virus 1, NL4-3, MT4
# [15] = test system: Human immunodeficiency virus 1; assay: Anti retroviral activity against HIV-1 NL4-3 harboring at AA polymorph infected in human MT4 cells by CellTitre-Glo luminescent reagent based assay; format: functional, organism-based; details: Human immunodeficiency virus 1, NL4-3, MT4
# [16] = test system: Human immunodeficiency virus 1; assay: Anti retroviral activity against HIV-1 NL4-3 harboring at TA polymorph infected in human MT4 cells by CellTitre-Glo luminescent reagent based assay; format: functional, organism-based; details: Human immunodeficiency virus 1, NL4-3, MT4
# [17] = Human immunodeficiency virus 1, NLRep, MT2, 120 h
Compound,CC50 at 96 h [1] [nM],"EC50 [2, 17] [nM]",IC50 [3] [nM],half-life at 0.5 µM [4] [h],half-life at 0.5 µM [7] [h],clearance [8] [mL/min/kg],further results
Cc1nc(C)c([C@H](OC(C)(C)C)C(=O)O)c(N2CCC(C)(C)CC2)c1-c1ccc(Cc2ccccc2)cc1,≥ 20000,12.2,13.4,–,–,–,–
Cc1ncsc1CCOc1ccc(-c2c(C)nc(C)c([C@H](OC(C)(C)C)C(=O)O)c2N2CCC(C)(C)CC2)cc1,≥ 25000,0.8,12.7,> 2,1.5,69,EC50 [5]: 1 nM; EC50 [6]: 0.7 nM; EC50 [9]: 0.75 nM; EC50 [10]: 1 nM; EC50 [11]: 1.3 nM; EC50 [12]: 107 nM
COc1ccc(CCOc2ccc(-c3c(C)nc(C)c([C@H](OC(C)(C)C)C(=O)O)c3N3CCC(C)(C)CC3)cc2)cc1,≥ 33500,3.9,13.2,> 2,> 2,13.4,–
Cc1nc(C)c([C@H](OC(C)(C)C)C(=O)O)c(N2CCC(C)(C)CC2)c1-c1ccc(OCCc2ccc(F)cc2F)cc1,≥ 33500,3.6,11.6,> 2,1.08,9,–
Cc1ccc(CCOc2ccc(-c3c(C)nc(C)c([C@H](OC(C)(C)C)C(=O)O)c3N3CCC(C)(C)CC3)cc2)cc1,≥ 33500,14.7,15.5,–,–,–,–
Cc1nc(C)c([C@H](OC(C)(C)C)C(=O)O)c(N2CCC(C)(C)CC2)c1-c1ccc(NCCc2ccc(F)cc2)cc1,≥ 32000,5.4,18,1.83,0.683,12,–
Cc1noc(C)c1CCOc1ccc(-c2c(C)nc(C)c([C@H](OC(C)(C)C)C(=O)O)c2N2CCC(C)(C)CC2)cc1,≥ 25000,1.5,11.4,1.32,0.467,58.9,–
Cc1nc(C)c([C@H](OC(C)(C)C)C(=O)O)c(N2CCC(C)(C)CC2)c1-c1ccc(SCCc2ccc(F)cc2)cc1,≥ 32000,15.6,98,> 2,> 2,–,–
Cc1nc(C)c([C@H](OC(C)(C)C)C(=O)O)c(N2CCC(C)(C)CC2)c1-c1ccc(Oc2ccccc2)cc1,≥ 20000,37.5,53.5,–,–,–,–
Cc1nc(C)c([C@H](OC(C)(C)C)C(=O)O)c(N2CCC(C)(C)CC2)c1-c1ccccc1,–,67,55.5,–,–,–,–
Cc1nc(C)c([C@H](OC(C)(C)C)C(=O)O)c(N2CCC(C)(C)CC2)c1-c1ccc(OCCc2ccncc2)cc1,≥ 25000,0.6,–,–,–,–,–
Cc1nc(C)c([C@H](OC(C)(C)C)C(=O)O)c(N2CCC(C)(C)CC2)c1-c1ccc(OCCc2ccc(Cl)cc2)cc1,≥ 33500,12,30.4,–,–,–,–
Cc1nc(C)c([C@H](OC(C)(C)C)C(=O)O)c(N2CCC(C)(C)CC2)c1-c1ccc(OCCc2ccc(F)c(F)c2)cc1,≥ 33500,2.7,6.7,0.85,> 2,5.8,EC50 [5]: 2.7 nM; EC50 [6]: 3.7 nM; EC50 [9]: 1.8 nM; EC50 [10]: 2.1 nM; EC50 [11]: 7 nM; EC50 [12]: 255 nM
COc1cccc(CCOc2ccc(-c3c(C)nc(C)c([C@H](OC(C)(C)C)C(=O)O)c3N3CCC(C)(C)CC3)cc2)c1,≥ 33500,1.7,15.9,> 2,> 2,–,–
Cc1nc(C)c([C@H](OC(C)(C)C)C(=O)O)c(N2CCC(C)(C)CC2)c1-c1ccc(OCCCc2ccc(F)cc2)cc1,≥ 32000,11.9,35.5,> 2,> 2,–,–
Cc1sc(-c2ccncc2)c(C2=CCC(C)(C)CC2)c1[C@H](OC(C)(C)C)C(=O)O,–,–,–,–,–,–,EC50 [13]: 14000 nM; EC50 [14]: 31 nM; EC50 [15]: 1500 nM; EC50 [16]: 1600 nM

Compound,CC50 at 96 h [1] [nM],"EC50 [2, 17] [nM]",IC50 [3] [nM],half-life at 0.5 µM [4] [h],half-life at 0.5 µM [7] [h],clearance [8] [mL/min/kg],further results
Cc1nc(C)c([C@H](OC(C)(C)C)C(=O)O)c(N2CCC(C)(C)CC2)c1-c1ccc(OCCc2ccccn2)cc1,≥ 25000,0.9,16.7,1.02,0.5,–,–
Cc1cc(CCOc2ccc(-c3c(C)nc(C)c([C@H](OC(C)(C)C)C(=O)O)c3N3CCC(C)(C)CC3)cc2)ccc1F,≥ 33500,4.8,21.1,> 2,> 2,7.8,–
Cc1nc(CCOc2ccc(-c3c(C)nc(C)c([C@H](OC(C)(C)C)C(=O)O)c3N3CCC(C)(C)CC3)cc2)cs1,≥ 25000,5,32.6,1.75,0.683,–,–
Cc1ccc(CCOc2ccc(-c3c(C)nc(C)c([C@H](OC(C)(C)C)C(=O)O)c3N3CCC(C)(C)CC3)cc2)s1,≥ 25000,4.4,49.2,> 2,> 2,–,–
Cc1nc(C)c([C@H](OC(C)(C)C)C(=O)O)c(N2CCC(C)(C)CC2)c1-c1ccc(OCCc2cc(F)c(F)cc2F)cc1,≥ 33500,3.3,18.1,> 2,> 2,8.1,–
Cc1nc(C)c(CCOc2ccc(-c3c(C)nc(C)c([C@H](OC(C)(C)C)C(=O)O)c3N3CCC(C)(C)CC3)cc2)s1,≥ 25000,1.1,11.7,> 2,0.917,30.1,–
Cc1nc(C)c([C@H](OC(C)(C)C)C(=O)O)c(N2CCC(C)(C)CC2)c1-c1ccc(-c2ccccc2)cc1,≥ 20000,31.2,30.7,–,–,–,–
Cc1nc(C)c([C@H](OC(C)(C)C)C(=O)O)c(N2CCC(C)(C)CC2)c1-c1ccc(OCCc2ccccc2)cc1,≥ 20000,2.3,9.4,> 2,> 2,–,–
Cc1nc(C)c([C@H](OC(C)(C)C)C(=O)O)c(N2CCC(C)(C)CC2)c1-c1ccc(CCCc2ccc(F)cc2)cc1,≥ 32000,22.6,73.3,> 2,> 2,–,–
Cc1nc(C)c([C@H](OC(C)(C)C)C(=O)O)c(N2CCC(C)(C)CC2)c1-c1ccc(OCc2ccccc2)cc1,≥ 20000,11.3,30.2,–,–,–,–
Cc1nc(C)c([C@H](OC(C)(C)C)C(=O)O)c(N2CCC(C)(C)CC2)c1-c1ccc(OCCc2cc(F)ccc2F)cc1,≥ 33500,2.8,14.7,–,–,18.7,–
Cc1nc(C)c([C@H](OC(C)(C)C)C(=O)O)c(N2CCC(C)(C)CC2)c1-c1ccc(OCCc2cccnc2)cc1,≥ 25000,1.3,19.3,0.783,0.367,–,–
CCc1cccc(CC)c1-c1cc(-c2ccc3c4c(ccnc24)CCO3)c(C(OC(C)(C)C)C(=O)O)c(C)n1 (racemic),–,190,100000,–,–,–,–
Cc1nc(C)c([C@H](OC(C)(C)C)C(=O)O)c(N2CCC(C)(C)CC2)c1-c1ccc(OC2CCCC2c2ccc(F)cc2)cc1 (stereo in doubt; 39a),≥ 32000,–,35.5,–,–,–,EC50 ([2]; mt2): 12 nM
Cc1nc(C)c([C@H](OC(C)(C)C)C(=O)O)c(N2CCC(C)(C)CC2)c1-c1ccc(OC2CCCC2c2ccc(F)cc2)cc1 (stereo in doubt; 39b),–,–,17.7,–,–,–,EC50 ([2]; mt2): 5 nM
Cc1nc(C)c([C@H](OC(C)(C)C)C(=O)O)c(N2CCC(C)(C)CC2)c1-c1ccc(OC2COCC2c2ccc(F)cc2)cc1 (stereo in doubt; 40a),≥ 32000,–,4.9,–,–,–,EC50 ([2]; mt2): 2 nM
